Data taken from US6703361B2, “Method of treating or preventing Type 1 diabetes by oral administration of insulin” (AutoImmune Inc., priority 1990, dated 2004).
“Also recorded” adds a separate entry of the source.

B1: myelin basic protein (protein, UniProt P02687 1-169, looked up)
Myelin basic protein: AAQKRPSQRSKYLASASTMDHARHGFLPRHRDTGILDSLGRFFGSDRGAPKRGSGKDGHHAARTTHYGSLPQKAQGHRPQDENPVVHFFKNIVTPRTPPPSQGKGRGLSLSRFSWGAEGQKPGFGYGGRASDYKSAHKGLKGHDAQGTLSKIFKLGGRDSRSGSPMARR
notes: myelin basic protein (obtained from Pel Freez) fed as a control protein

Experiments:
Format in all cases: in vivo
[1] = tested on: spontaneous diabetes in NOD mice; experiment: Effect of feeding porcine insulin on spontaneous diabetes in NOD mice (Example 1)
Source text: NOD (non-obese diabetic mice) were obtained from Taconic Laboratories (Germantown, Mass.) at 4 weeks of age. There were a total of 30 animals in each of the groups mentioned below at the beginning of the experiment. At 4½ weeks of age, animals were orally administered Porcine insulin (Novo Laboratories, Danbury, Conn.). Each animal received two treatments orally twice a week until 9 weeks of age. The mice were fed either saline (control) or 10 micrograms, 100 micrograms, or 1 milligram of Porcine insulin. The animals were fed (gavaged) with an 18 gauge ball-point needle (Popper and Sons, Inc., New Hyde Park, N.Y.). Beginning at 10 weeks the animals were then fed once a week for a total of 33 weeks. Beginning at 12 weeks the urine was tested weekly for the presence of glucose using Glucosuria test tape (Eli Lilly, Indianapolis, Ind.). If an animal tested 3+ or higher on the glucose urine test, a serum sample was taken and blood glucose measured using a glucose analyzer (Beckman). If the blood glucose was 220 or higher, the animals were classified as diabetic and then sacrificed.

[2] = tested on: blood glucose in fasting NOD mice; experiment: Glucose post oral insulin in fasting 7 week NOD mice (Example 2); settings: for blood glucose after feeding: 1 mg fed orally, fasting 7 week old NOD mice
Experimental: In order to determine whether any endocrinologic (i.e. direct lowering of blood sugar) effects occurred following the feeding of insulin, 7 week old NOD mice (5 mice per group) were fed 1 mg of porcine insulin or 1 mg of myelin basic protein (obtained from Pel Freez, Rogers, Ark.) as a control protein. Blood glucose was then measured over the next 24 hour period. As a positive control, a separate group of animals were injected subcutaneously with 20 micrograms of Porcine insulin. All animals were kept in the fasting state.

insulitis in NOD mice = experiment: Preliminary experiments on insulitis in insulin-fed NOD mice; settings: NOD mice fed 1 mg of insulin vs PBS-fed, data not shown
Source text: Therefore, oral administration of insulin to NOD mice appeared to be affecting the infiltration of immune system cells into the pancreas and thus halting disease progression by preserving beta cell function.

diabetes in NOD mice = experiment: Effect of aerosol administration of insulin on diabetes in NOD mice (Example 4); settings: insulin 0 to 1 mg in aerosol form by nebulizer; expected
Experimental: Insulin (0 to 1 mg as in Examples 1 and 2) will be administered to NOD mice as described above in Examples 1 and 2 except in aerosol form by nebulizer.

[3] = tested on: NOD mice suffering from hyperglycemia; experiment: Treatment of initial stages of diabetes in NOD mice (Example 5); settings: oral and aerosol administration to hyperglycemic NOD mice; expected
Experimental: Insulin (0 to 1 mg as in Examples 1 and 2) will be administered to NOD mice which are suffering from hyperglycemia in an oral and aerosol form. The treatments will begin by weeks 12-20 of age, by which the serum glucose levels are at hyperglycemic concentrations in a certain percentage of animals prior to onset of diabetes.

Row | Molecule | development of diabetes ([1]; NOD mice fed 1 mg insulin orally) | development of diabetes ([1]; NOD mice fed 10 micrograms insulin orally) | development of diabetes ([1]; NOD mice fed 100 micrograms insulin orally) | incidence of diabetes ([1]; all doses of orally administered insulin tested (10 micrograms, 100 micrograms, 1 mg)) | blood glucose after feeding [2] | endocrinologic (metabolic) effects from feeding ([2]; 1 mg oral insulin, NOD mice) | period over which the glucose decrease persisted ([2]; 20 micrograms porcine insulin injected subcutaneously, fasting NOD mice) [h] | decrease in glucose level ([2]; 20 micrograms porcine insulin injected subcutaneously, fasting NOD mice (positive control)) | inflammatory immune system cells surrounding the pancreas (insulitis) (insulitis in NOD mice) | prevention of manifestation of symptoms (hyperglycemia) of Type 1 diabetes (diabetes in NOD mice) | beta cell function [3] | serum glucose concentrations [3]
1 | Porcine insulin | none of the mice went on to develop diabetes; also recorded: no diabetes developed; also recorded: None of the animals developed diabetes | diabetes developed | diabetes developed | lower incidence of diabetes; also recorded: reduced the numbers of these mice which subsequently went on to develop diabetes | no drop in the blood glucose | not a metabolic effect; also recorded: no endocrinologic (metabolic) effects | 4 | approximately 80 mg % | fewer inflammatory immune system cells surrounding the pancreas | effective in preventing the manifestation of symptoms | preservation of beta cell function | reduction in serum glucose concentrations to near normal levels
2 | B1 | – | – | – | – | no drop in the blood glucose | – | – | – | – | – | – | –
